Tests used:
12-LO = molecular target: T1, 12-LO (Homo sapiens, UniProt P18054); assay: 12-LO product formation in A23187/AA-activated PMNL; format: cell-based; settings: at 3 µM; mean ± s.e.m., n = 3; n.i. no inhibition
T1 construct: 12-HETE (12-LO product from platelets in PMNL preparations); endogenous in cells; host or cells: platelets contaminating human PMNL preparations
T1 sequence (P18054 1-663): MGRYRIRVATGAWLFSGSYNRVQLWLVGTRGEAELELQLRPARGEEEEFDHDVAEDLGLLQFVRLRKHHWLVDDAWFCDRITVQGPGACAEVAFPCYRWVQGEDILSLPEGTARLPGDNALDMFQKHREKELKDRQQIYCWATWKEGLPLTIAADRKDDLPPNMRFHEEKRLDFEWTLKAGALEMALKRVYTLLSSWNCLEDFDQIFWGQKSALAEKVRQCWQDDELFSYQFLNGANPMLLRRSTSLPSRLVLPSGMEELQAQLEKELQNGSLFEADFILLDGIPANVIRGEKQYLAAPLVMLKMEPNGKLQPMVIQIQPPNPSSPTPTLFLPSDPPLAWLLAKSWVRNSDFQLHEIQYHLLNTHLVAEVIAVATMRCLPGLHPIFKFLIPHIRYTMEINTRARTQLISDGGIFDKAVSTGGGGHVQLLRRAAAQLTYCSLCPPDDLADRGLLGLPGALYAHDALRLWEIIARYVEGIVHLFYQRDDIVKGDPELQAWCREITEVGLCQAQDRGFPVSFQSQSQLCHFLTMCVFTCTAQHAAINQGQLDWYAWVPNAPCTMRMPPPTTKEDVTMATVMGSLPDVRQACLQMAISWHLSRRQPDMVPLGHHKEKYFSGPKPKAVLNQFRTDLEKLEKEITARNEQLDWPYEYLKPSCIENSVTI
Method: (§1) Cells were washed and medium was exchanged. Freshly isolated PMNL (1 × 10^7) and stably transfected HEK-293 (1 × 10^6) cells were suspended in PBS pH 7.4 containing 1 mg/ml glucose and 1 mM CaCl2. […] A23187- and A23187/AA-treated PMNL and A23187/AA-treated HEK-293 (5-LO_wt), HEK-293 (5-LO_3W) and HEK-293 (5-LO_Arg101Asp) cells produced 135 ± 21, 636 ± 112, 300 ± 59, 133 ± 29, 55 ± 9 ng 5-LO products, respectively. PMNL synthesized 29 ± 6 ng 12-HETE and 97 ± 23 ng 15-HETE when challenged with A23187/AA. 5-LO products from monocytes were analyzed by UPLC-MS/MS.

5-LO [1] = molecular target: T2, 5-LO (Homo sapiens, UniProt P09917); assay: Activity of purified human recombinant 5-LO (cell-free); format: biochemical; parameters: made in house; host or cells: E. coli Bl21 (DE3)
T2 sequence (P09917 1-674): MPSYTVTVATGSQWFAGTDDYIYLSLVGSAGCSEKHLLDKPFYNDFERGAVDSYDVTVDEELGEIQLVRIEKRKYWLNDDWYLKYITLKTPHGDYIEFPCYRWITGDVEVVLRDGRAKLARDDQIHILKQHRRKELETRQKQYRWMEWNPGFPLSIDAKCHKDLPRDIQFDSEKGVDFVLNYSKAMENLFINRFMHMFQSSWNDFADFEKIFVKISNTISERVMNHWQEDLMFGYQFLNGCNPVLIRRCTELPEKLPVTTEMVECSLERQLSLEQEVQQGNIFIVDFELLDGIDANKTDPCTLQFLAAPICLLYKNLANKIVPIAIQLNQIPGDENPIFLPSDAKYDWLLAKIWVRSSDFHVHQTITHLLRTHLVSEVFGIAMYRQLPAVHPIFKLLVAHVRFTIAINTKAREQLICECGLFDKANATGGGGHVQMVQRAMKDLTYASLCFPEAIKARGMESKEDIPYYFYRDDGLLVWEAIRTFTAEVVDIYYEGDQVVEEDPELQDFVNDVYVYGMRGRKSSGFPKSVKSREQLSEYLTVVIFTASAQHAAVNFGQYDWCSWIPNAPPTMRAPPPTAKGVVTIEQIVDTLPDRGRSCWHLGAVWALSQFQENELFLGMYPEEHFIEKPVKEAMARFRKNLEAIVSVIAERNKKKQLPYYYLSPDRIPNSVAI
Method: E. coli Bl21 (DE3) cells were transformed with pT3–5LO plasmid to express human recombinant 5-LO, which was purified by affinity chromatography on an ATP-agarose column. In brief, E. coli was lysed in 50 mM triethanolamine/HCl pH 8.0 plus EDTA (5 mM), soybean trypsin inhibitor (60 µg/ml), phenylmethanesulphonyl fluoride (1 mM), dithiothreitol (1 mM), and lysozyme (1 mg/ml). After sonication (3 × 15 s), the homogenate was centrifuged at 10,000 × g for 15 min and the supernatant again at 40,000 × g for 70 min at 4 °C. The supernatant was applied to an ATP-agarose column (Sigma-Aldrich), and the column was washed with (i) PBS pH 7.4, 1 mM EDTA, (ii) 50 mM phosphate buffer pH 7.4, 0.5 M NaCl, 1 mM EDTA, and (iii) 50 mM phosphate buffer pH 7.4, 1 mM EDTA. 5-LO was eluted with 50 mM phosphate buffer pH 7.4, 1 mM EDTA, 20 mM ATP.
Purified 5-LO (0.5 µg) in PBS pH 7.4 containing EDTA (1 mM) and ATP (1 mM) was pre-incubated with LCMs for 10 min at 4 °C, pre-warmed for 30 s at 37 °C and 5-LO product formation was started by addition of AA (Sigma-Aldrich; 20 µM if not indicated otherwise) plus CaCl2 (2 mM). […] AA was added after incubation for 5 min on ice.

[2] = test system: peripheral blood mononuclear cells; assay: Cell viability of PBMC (MTT assay); format: cell-based, human; settings: 24 h
Method: The formazan product was solubilized with SDS (10% in 20 mM HCl), and absorbance was measured at 570 nm using a Multiskan Spectrum microplate reader (Thermo Fisher Scientific).

5-LO [3] = molecular target: T2, 5-LO; assay: 5-LO product formation in activated PMNL; format: cell-based; parameters: Freshly isolated PMNL (1 × 10^7); endogenous in cells; host or cells: human PMNL freshly isolated from leukocyte concentrates; settings: cell-based; mean ± s.e.m., n = 3; read-out: IC50, activated PMNL (5-LO)
Excerpt: Human PMNL, monocytes, PBMC, and platelets were freshly isolated from leukocyte concentrates. The protocols for experiments with human blood and blood cells were approved by the ethical commission of the Friedrich-Schiller-University Jena. […] PMNL were recovered from the pellet after hypotonic lysis of erythrocytes. Platelets were obtained from the supernatant and washed with PBS pH 5.9/0.9% NaCl (1:1). […]

15-LO = 15-LO product formation in A23187/AA-activated PMNL; format: cell-based, human; settings: at 3 µM; mean ± s.e.m., n = 3; n.i. no inhibition
Method: as §1

[4] = cell-free, mean ± s.e.m., n = 3, read-out: IC50, human recombinant 5-LO
[5] = at 1 and 10 µM (one entry for both), n.i. no inhibition
[6] = human recombinant 5-LO, read-out: IC50 for 5-LO inhibition

Structure (SMILES) | 12-LO product formation/PMNL, residual activity (12-LO) | IC50 (5-LO [1]; [4]) [nM] | IC50 (5-LO [3]) [µM] | 15-LO product formation/PMNL, residual activity (15-LO) | further results
Cc1cc(O)c(C)c2c1O[C@](C)(CCC[C@H](C)CCC[C@H](C)CCCC(C)C)CC2 [1b] | n.i. | 750 ± 150 | 57 ± 2 | n.i. | Cell viability/peripheral blood mononuclear cells, residual viability [2, 5]: n.i.
Cc1cc(O)cc2c1OC(C)(CCC(=O)O)CC2 (centres unmarked) [6d, 2,8-dimethyl-2-(2′-carboxyethyl)-6-hydroxychroman] | n.i. |  |  | n.i. | 
C/C(=C\CC/C(C)=C/CC[C@]1(C)CCc2c(C)c(O)cc(C)c2O1)CC/C=C(\C)C(=O)O [4f] | 70.0 ± 14.1 % of control |  |  | 186.1 ± 35.8 % of control | Cell viability/peripheral blood mononuclear cells, residual viability [2, 5]: n.i.
C/C(=C\CC/C(C)=C/CC/C(C)=C/CC[C@]1(C)CCc2c(C)c(O)c(C)c(C)c2O1)CO [2e] | 62.7 ± 15.2 % of control | 110 ± 10 | 0.27 ± 0.1 | 88.0 ± 17.0 % of control | 
CC(C)=CCC/C(C)=C/CC/C(C)=C/CC[C@]1(C)CCc2c(C)c(O)cc(C)c2O1 [1f] | 65.4 ± 6.1 % of control | 190 ± 30 | 95 ± 5 | n.i. | 
C/C(=C\CC/C(C)=C/CC[C@]1(C)CCc2cc(Oc3c(O)cc(C)c4c3CC[C@@](C)(CC/C=C(\C)CC/C=C(\C)CCC=C(CO)CO)O4)c(C)c(C)c2O1)CCC=C(CO)CO [compound 10, (δ,γ)-bi-O-amplexichromanol] |  |  |  |  | IC50 (5-LO [1]; purified human recombinant 5-LO, mean ± s.e.m., n = 3, read-out: IC50 (5-LO)): 400 ± 110 nM
Cc1cc(O)cc2c1O[C@](C)(CCC[C@H](C)CCC[C@H](C)CCCC(C)C(=O)O)CC2 (some centres unmarked) [4d] | 74.5 ± 5.9 % of control |  |  | 121.6 ± 10.9 % of control | Cell viability/peripheral blood mononuclear cells, residual viability [2, 5]: n.i.
Cc1c(C)c2c(c(C)c1O)CCC(C)(CCCC(C)C(=O)O)O2 (stereo not drawn) [5a, 3,4-dihydro-6-hydroxy-α,2,5,7,8-pentamethyl-2H-1-benzopyran-2-pentanoic acid] | 56.7 ± 3.0 % of control |  |  | n.i. | IC50 (5-LO [1]; [6]): 750 nM
C/C(=C\CC/C(C)=C/CC/C(C)=C/CC[C@]1(C)CCc2c(C)c(O)cc(C)c2O1)CO [2f] | 57.8 ± 13.6 % of control | 90 ± 30 | 0.38 ± 0.09 | 78.9 ± 14.8 % of control | IC50 (5-LO [1]; [6]): < 100 nM
Cc1c(C)c2c(c(C)c1O)CCC(C)(CCC(=O)O)O2 (centres unmarked) [6a, 2,5,7,8-tetramethyl-2-(2′-carboxyethyl)-6-hydroxychroman] | 87.2 ± 3.6 % of control |  |  | n.i. | 
CC(C)=CCC/C(C)=C/CC/C(C)=C/CC[C@]1(C)CCc2cc(O)c(C)c(C)c2O1 [1g] | 70.8 ± 2.3 % of control | 200 ± 60 | 132 ± 33 | n.i. | 
C/C(=C\CC[C@]1(C)CCc2cc(O)cc(C)c2O1)CC/C=C(\C)CCCC(C)C(=O)O (some centres unmarked) [4l] |  |  |  |  | IC50 (5-LO [1]): 170 ± 40 nM
C/C(=C\CC/C(C)=C/CC[C@]1(C)CCc2c(C)c(O)c(C)c(C)c2O1)CC/C=C(\C)C(=O)O [4e] | 72.6 ± 13.6 % of control |  |  | 181.5 ± 26.5 % of control | Cell viability/peripheral blood mononuclear cells, residual viability [2, 5]: n.i.
C/C(=C\CC/C(C)=C/CC[C@]1(C)CCc2cc(O)c(C)c(C)c2O1)CCC=C(CO)CO [compound 9] |  |  |  |  | IC50 (5-LO [1]): 110 nM
C/C(=C\CC/C(C)=C/CC[C@]1(C)CCc2cc(O)cc(C)c2O1)CCC=C(CO)CO [compound 8] |  |  |  |  | IC50 (5-LO [1]): 150 ± 40 nM
Cc1c(O)cc2c(c1C)OC(C)(CCC(=O)O)CC2 (centres unmarked) [6c, 2,7,8-trimethyl-2-(2′-carboxyethyl)-6-hydroxychroman] | 89.9 ± 4.2 % of control |  |  | n.i. | 
C/C(=C/CC/C(C)=C/CC/C(C)=C/CC[C@]1(C)CCc2cc(O)c(C)c(C)c2O1)CO [3g] |  | 120 ± 30 | 0.14 ± 0.02 | 168.8 ± 1.2 % of control | Cell viability/peripheral blood mononuclear cells, residual viability ([2]; at 1 µM): n.i.; Cell viability/peripheral blood mononuclear cells, residual viability ([2]; at 10 µM): 43.7 ± 16.2 % of control
CC(C)=CCC/C(C)=C/CC/C(C)=C/CC[C@]1(C)CCc2c(C)c(O)c(C)c(C)c2O1 [1e] | 88.9 ± 4.9 % of control | 330 ± 80 | 277 ± 90 | n.i. | 

— PMC6148290, “Endogenous metabolites of vitamin E limit inflammation by targeting 5-lipoxygenase” (Nature Communications, 2018)
